SMILES strings stand for the structures.

Series [1] deals with zebrafish neuromast cells. Kind of series: TUNEL assay in zebrafish neuromasts. Conditions: 400 μM, 6 h. It counts as in vivo, zebrafish (Danio rerio). How it is done:
Absorbance was measured with SpectraMax® M Series Multi-Mode Microplate Reader with Soft Max Pro 7.2 GxP Software (Molecular Devices, Sunnyvale, CA, USA), and the average OD in control cells was taken as 100% of viability. […] Mice treatment followed the same procedures as described in [18]. Following treatment, animals or tissue samples were incubated in Click-it EdU or Click-it Plus TUNEL kits (Thermo Scientific, Waltham, MA, USA), following the manufacturer’s instructions to label proliferating and apoptotic cells, respectively.

For a further series, the system named is HT-1080. As to the kind of experiment: TACS MTT cell proliferation / metabolic activity assay in HT-1080. It counts as cell-based, human. To be noted: for Increase in MTT absorbance compared to DMSO controls and untreated cells: HT-1080, low-dose exposure (≤5 μM); for MTT absorbance change at higher concentrations: HT-1080, ≥5 μM. On the procedure: (§1) HEI-OC1 cells derived from the mouse OC (kindly provided by Dr. F. Kalinec) were cultured under permissive conditions (33 °C, 10% CO2) as described in [22]. Additionally, we assessed the activity of Qx-derived compounds in the mouse neuroblastoma cell line, Neuro-2A, and the human fibrosarcoma HT-1080 (ATCC, Manassas, VA, USA) following the standard cell culture guidelines provided by the vendor.
(§2) In vitro cell proliferation effects of all ten initial compounds (Figure 1A,B) were tested on HEI-OC1, Neuro-2A and HT-1080 cells by TACS® 3-(4,5-dimethylthiazol-2-yl)-2,5-diphenyltetrazolium bromide (MTT) Cell Proliferation Assay (R&D Systems, Minneapolis, MN, USA, 4890-025-K), following the manufacturer’s protocol. Absorbance was measured with SpectraMax® M Series Multi-Mode Microplate Reader with Soft Max Pro 7.2 GxP Software (Molecular Devices, Sunnyvale, CA, USA), and the average OD in control cells was taken as 100% of viability. Upon selecting the most viable compounds (Qx-294 and Qx-301), we proceeded with in vivo experiments. For zebrafish treatment, animals were incubated for varied times with different concentrations (50, 100, 150, 200, 250, and 300 μg/mL) of Qx-294 or Qx-301 diluted in swimming (E3) media or administered via IP injections. Mice treatment followed the same procedures as described in [18]. Following treatment, animals or tissue samples were incubated in Click-it EdU or Click-it Plus TUNEL kits (Thermo Scientific, Waltham, MA, USA), following the manufacturer’s instructions to label proliferating and apoptotic cells, respectively.

A further series deals with HEI-OC1 cells. As to the kind of experiment: TACS MTT cell proliferation / metabolic activity assay in HEI-OC1. The format is cell-based, mouse. Conditions: for Proliferative effect and metabolic activity at low concentrations: 0.1 μM to 5 μM, 24 h incubation, also stated for Neuro-2A and HT-1080; for Proliferative effect vs Qx-70 and untreated cells: HEI-OC1, TACS MTT; for Metabolic and proliferative activities at high concentrations: concentrations higher than 5 μM, across all three lines. How it is done: as §1, §2

A further series deals with Neuro-2A. Kind of series: TACS MTT cell proliferation / metabolic activity assay in Neuro-2A. It counts as cell-based, mouse. To be noted: for Increase in MTT absorbance compared to DMSO controls and untreated cells: low-dose exposure (≤5 μM); for MTT absorbance change at higher concentrations: ≥5 μM. On the procedure:
as §1, §2

As to `N.N.[Cl][Pt][Cl]` [cisplatin, reference compound], the “Cell death (TUNEL) in neuromasts, positive control” value in series [1] is “extensive cell death”.
On to `c1ccc2nc(N3CCSCC3)cnc2c1` [Qx-295, 2-(thiomorpholine)-quinoxaline], for which, in the series on HT-1080, the “Increase in MTT absorbance compared to DMSO controls and untreated cells” value (“Increase in MTT absorbance” for short) is at most 9%; the “MTT absorbance change at higher concentrations” value (from here on “MTT absorbance change”) was “moderate reductions”. Further, in the series on HEI-OC1 cells, the “Proliferative effect and metabolic activity at low concentrations” value was “high proliferative effect and increased metabolic activity”; the “Proliferative effect vs Qx-70 and untreated cells” value is “significant and reproducible proliferative effects greater than those of Qx-70 and the untreated cells”; the “Metabolic and proliferative activities at high concentrations” value (from here on “Metabolic and proliferative activities”) was “declined”. Moreover, in the series with Neuro-2A, the “Increase in MTT absorbance” value is at most 9%; the “MTT absorbance change” value was “moderate reductions”.
Take `CCNc1cnc2ccccc2n1` [Qx-292, 2-(ethylamine)-quinoxaline]: in the series on HT-1080, the “Increase in MTT absorbance” value is reported as at most 9%; the “MTT absorbance change” value was “moderate reductions”. In the series on HEI-OC1 cells, the “Proliferative effect and metabolic activity at low concentrations” value was “high proliferative effect and increased metabolic activity”; the “Proliferative effect vs Qx-70 and untreated cells” value is “significant and reproducible proliferative effects greater than those of Qx-70 and the untreated cells”; the “Metabolic and proliferative activities” value is listed as “declined”. In the series on Neuro-2A, the “Increase in MTT absorbance” value is at most 9%; the “MTT absorbance change” value is given as “moderate reductions”.
For `CC(=O)N1CCN(c2cnc3ccccc3n2)CC1` [Qx-296, 2-(4-acetylpiperazine)-quinoxaline], in the series on HT-1080, the “Increase in MTT absorbance” value was at most 9%; the “MTT absorbance change” value is “moderate reductions”. Moreover, in the series with HEI-OC1 cells, the “Proliferative effect and metabolic activity at low concentrations” value was “high proliferative effect and increased metabolic activity”; the “Proliferative effect vs Qx-70 and untreated cells” value was “significant and reproducible proliferative effects greater than those of Qx-70 and the untreated cells”; the “Metabolic and proliferative activities” value is listed as “declined”. In the series with Neuro-2A, the “Increase in MTT absorbance” value was at most 9%; the “MTT absorbance change” value is listed as “moderate reductions”.

(Values after PMC12731105, “Design and Synthesis of New Quinoxaline Analogs to Regenerate Sensory Auditory Hair Cells” (Cells, 2025).)
